The values that follow come from PMC3527483, “Phospholipid Mediated Activation of Calcium Dependent Protein Kinase 1 (CaCDPK1) from Chickpea: A New Paradigm of Regulation” (PLoS ONE, 2012).

pKd: −log10 of the molar value.

The term pKd denotes the negative decadic logarithm of the Kd, by convention in mol/L.

The assay deals with T1, CaCDPK1 (Cicer arietinum, UniProt Q7XZK5).
T1 construct: gene CDPK1; full ORF in pRSET A (His-tag), expressed in Escherichia coli BL21, Ni-NTA purified under native conditions; tag removal not mentioned
As to the kind of experiment: intrinsic tryptophan fluorescence quenching at […] nm. The assay is classed as binding. The note with it: PA vesicles (sonicated), 1 mM CaCl2, pH 7.2, 25 °C, 1 µM protein; half-maximal fluorescence change; activator.

T1 sequence (Q7XZK5 1-556): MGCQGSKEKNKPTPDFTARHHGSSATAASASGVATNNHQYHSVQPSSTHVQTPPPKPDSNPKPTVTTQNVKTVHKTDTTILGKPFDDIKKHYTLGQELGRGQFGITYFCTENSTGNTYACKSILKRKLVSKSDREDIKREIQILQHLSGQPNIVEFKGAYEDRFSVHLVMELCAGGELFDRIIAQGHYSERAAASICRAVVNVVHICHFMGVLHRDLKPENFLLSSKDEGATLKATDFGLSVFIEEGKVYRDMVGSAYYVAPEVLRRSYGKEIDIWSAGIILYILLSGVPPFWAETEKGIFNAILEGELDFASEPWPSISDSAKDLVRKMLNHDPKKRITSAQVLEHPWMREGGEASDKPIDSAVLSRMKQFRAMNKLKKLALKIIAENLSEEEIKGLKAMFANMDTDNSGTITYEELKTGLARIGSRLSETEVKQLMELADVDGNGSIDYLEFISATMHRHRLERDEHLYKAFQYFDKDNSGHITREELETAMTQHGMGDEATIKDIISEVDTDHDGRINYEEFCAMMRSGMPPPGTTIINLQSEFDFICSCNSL

“1,2-diacyl-sn-gylcero-3-P sodium salt [PA]” had a pKd of 6.47.
